Results reported in patent US11834460B2, “Imide-based modulators of proteolysis and associated methods of use” (YALE UNIVERSITY, priority 2018, dated 2023).

system: c-Myc; assay: c-Myc ELISA assay protocol in 22RV-1 cells; assay type: cell-based, human; settings: 18 h, read-out: cMyc IC50
Method: In each bioassay, cells were treated with varying amounts of compounds encompassed by the present disclosure, as shown in Table 1. The degradation of the following proteins were evaluated in this study: TANK-binding kinase 1 (TBK1), estrogen receptor α (ERα), bromodomain-containing protein 4 (BRD4), androgen receptor (AR), and c-Myc.
5. c-Myc ELISA Assay Protocol
22RV-1 cells were purchased from ATCC and cultured in RPMI+10% FBS media. Cells were harvested using trypsin (Gibco #25200-114), counted and seeded at 30,000 cells/well at a volume of 75 μL/well in RPMI +10% FBS media in 96-well plates. The cells were dosed with compounds diluted in 0.1% DMSO, incubated for 18 h then washed and lysed in 50 uL RIPA buffer (50 mM Tris pH8, 150 mM NaCl, 1% Tx-100, 0.1% SDS, 0.5% sodium deoxycholate) supplemented with protease and phosphatase inhibitors. The lysates were clarified at 4000 rpm at 4° C. for 10 minutes then aliquots were added into a 96-well ELISA plate of Novex Human c-myc ELISA kit from Life Technologies Catalog #KHO2041. 50 ul of c-Myc Detection antibody was added into every well, the plates incubated at room temperature for 3 hrs, then washed with ELISA wash buffer. 100 uL of the anti-rabbit IgG-HRP secondary antibody was added to each well and incubated at room temperature for 30 minutes. The plates were washed with ELISA wash buffer, 100 μL TMB added to each well, and then monitored every 5 minutes for a color change. 100 μL of stop solution is added and the plates read at 450 nm.

IC50	SMILES
< 50 nM	Cc1sc2c(c1C)C(c1ccc(Cl)cc1)=N[C@@H](CC(=O)NCCOCCOCCNc1cccc3c1C(=O)N(C1CCC(=O)NC1=O)C3=O)c1nnc(C)n1-2 (stereo partly drawn) [Compound 37, 2-[(9S)-7-(4-chlorophenyl)-4,5,13-trimethyl-3-thia-1,8,11,12-tetraazatricyclo [8.3.0.0^2,^6]trideca-2(6),4,7,10,12-pentaen-9-yl]-N-{2-[2-(2-{[2-(2,6-dioxopiperidin-3-yl)-1,3-dioxo-2,3-dihydro-1H-isoindol-4-yl]amino}ethoxy)ethoxy]ethyl} acetamide]
< 50 nM	Cc1sc2c(c1C)C(c1ccc(Cl)cc1)=N[C@@H](CC(=O)N[C@H](C)c1ccc(OCCOCCNc3cccc4c3CN(C3CCC(=O)NC3=O)C4=O)cc1)c1nnc(C)n1-2 (some centres unmarked) [Compound 38]
> 50 nM	Cc1sc2c(c1C)C(c1ccc(Cl)cc1)=N[C@@H](CC(=O)NCCOCCNc1cccc3c1CN(C1CCC(=O)NC1=O)C3=O)c1nnc(C)n1-2 (stereo partly drawn) [Compound 39, 2-[(9S)-7-(4-chlorophenyl)-4,5,13-trimethyl-3-thia-1,8,11,12-tetraazatricyclo [8.3.0.0^2,^6]trideca-2(6),4,7,10,12-pentaen-9-yl]-N-[2-(2-{[2-(2,6-dioxopiperidin-3-yl)-1-oxo-2,3-dihydro-1H-isoindol-4-yl]amino}ethoxy)ethyl]acetamide]
< 50 nM	Cc1sc2c(c1C)C(c1ccc(Cl)cc1)=N[C@@H](CC(=O)N[C@@H](C)c1ccc(-c3ncc(OCCCNc4cccc5c4C(=O)N(C4CCC(=O)NC4=O)C5=O)cn3)cc1)c1nnc(C)n1-2 (stereo partly drawn) [Compound 40, 2-((S)-4-(4-chlorophenyl)-2,3,9-trimethyl-6H-thieno[3,2-f][1,2,4]triazolo[4,3-a][1,4]diazepin-6-yl)-N-((1S)-1-(4-(5-(3-(2-(2,6-dioxopiperidin-3-yl)-1,3-dioxoisoindolin-4-ylamino)propoxy)pyrimidin-2-yl)phenyl)ethyl)acetamide]
< 50 nM	Cc1sc2c(c1C)C(c1ccc(Cl)cc1)=N[C@@H](CC(=O)N[C@@H](C)c1ccc(OCCCOCCNc3cccc4c3C(=O)N(C3CCC(=O)NC3=O)C4=O)cc1)c1nnc(C)n1-2 (stereo partly drawn) [Compound 41, 2-[9S)-7-(4-chlorophenyl)-4,5,13-trimethyl-3-thia-1,8,11,12-tetraazatricyclo [8.3.0.0^2,^6]trideca-2(6),4,7,10,12-pentaen-9-yl]-N-[(1S)-1-{4-[3-(2-{[2-(2,6-dioxopiperidin-3-yl)-1,3-dioxo-2,3-dihydro-1H-isoindol-4-yl]amino}ethoxy)propoxyphenyl}ethyl]acetamide]
< 50 nM	Cc1sc2c(c1C)C(c1ccc(Cl)cc1)=N[C@@H](CC(=O)N[C@@H](C)c1ccc(OCCOCCNc3cccc4c3CN(C3CCC(=O)NC3=O)C4=O)cc1)c1nnc(C)n1-2 (some centres unmarked) [Compound 42]
> 50 nM	Cc1sc2c(c1C)C(c1ccc(Cl)cc1)=N[C@@H](CC(=O)NCCCCNc1cccc3c1C(=O)N(C1CCC(=O)NC1=O)C3=O)c1nnc(C)n1-2 (stereo partly drawn) [Compound 43, 2-[(9S)-7-(4-chlorophenyl)-4,5,13-trimethyl-3-thia-1,8,11,12-tetraazatricyclo [8.3.0.0^2,^6]trideca-2(6),4,7,10,12-pentaen-9-yl]-N-(4-{[2-(2,6-dioxopiperidin-3-yl)-1,3-dioxo-2,3-dihydro-1H-isoindol-4-yl]amino}butyl) acetamide]
< 50 nM	Cc1nnc2n1C1=C(C(c3ccc(Cl)cc3)=N[C@H]2CC(=O)NCCCCCNc2cccc3c2C(=O)N(C2CCC(=O)NC2=O)C3=O)C(C)C(C)S1 (stereo partly drawn) [Compound 45, 2-[(9S)-7-(4-chlorophenyl)-4,5,13-trimethyl-3-thia-1,8,11,12-tetraazatricyclo [8.3.0.0^2,^6]trideca-2(6),4,7,10,12-pentaen-9-yl]-N-(5-{[2-(2,6-dioxopiperidin-3-yl)-1,3-dioxo-2,3-dihydro-1H-isoindol-4-yl]amino}pentyl) acetamide]
